Measurements: PMC12067350, “Discovery of Thieno[3,2‑b]pyridine-5-carboxamide and 2,3-Difluorobenzamide Negative Allosteric Modulators of Metabotropic Glutamate Receptor Subtype 5” (ACS Medicinal Chemistry Letters, 2025)

Experiments:
Format in all cases: in vitro ADME
[1] = Intrinsic clearance in rat liver microsomes; conditions: for CLint scaled at 0.75 h, 1 µM: pH 7.4, rat liver microsomes; for rat CLhep: predicted hepatic clearance from in vitro rat microsomal data
Description: Intrinsic Clearance in Rat and Human Liver Microsomes
The in vitro intrinsic clearance (CL int) was investigated in commercially obtained hepatic microsomes from rat and human donors using the substrate depletion (i.e., loss-of-parent vs. time, or t 1/2 method) approach with analyte detection via liquid chromatography-tandem mass spectrometry (LC-MS/MS). For each species, mean %parent remaining values at each time point were calculated from replicates raw data (analyte:IS peak area ratios) and used to determine in vitro t 1/2 and CLint.
Experiments were carried out using a robot-assisted (TECAN model Evo 200). Compound was incubated (1 µM final concentration) in buffer (100 mM potassium phosphate pH 7.4 with 3 mM MgCl2) containing hepatic microsomes (0.5 mg/mL final concentration) from multiple species, discretely, at 37 °C under constant orbital shaking. After 5 minutes (pre-incubation), reactions were initiated by addition of nicotinamide adenine dinucleotide phosphate (NADPH, 1 mM final concentration). At selected time intervals (0, 3, 7, 15, 25, and 45 minutes) post-addition of NADPH, aliquots (50 µL) were taken and placed into a 96-shallow-well plate containing ice cold acetonitrile (150 µL) with carbamazepine (IS, 50 nM). The plates were then centrifuged (3000 rcf at 4 °C) for 10 minutes. The supernatants were transferred to a new 96-shallow-well daughter plate and diluted (1:1 v/v) with water (Milli-Q filtered). The plates were then sealed in preparation for LC-MS/MS analysis (see below).
Raw LC-MS/MS peak area data generated from the assay samples were used to construct natural log-transformed %parent remaining vs. time plots (using t = 0 minute post-NADPH addition sample data as starting point set to 100%). In vitro compound half-life (t 1/2) values were obtained using the following […]
k is the slope from linear regression analysis of the natural log-transformed data (using means from Where all replicates at each time point). Resulting t 1/2 values were then used to calculate hepatic CLint values according to the following equation and with the use of species-specific scale-up factors for liver weight (grams) per total body weight (kg):
CL = 0.693 x 1 mL incubation x 45 mg microsomes x a gram liver
int in vitro t1/2 0.5 mg microsomes 1 gram liver kg body wt aScale-up factors used are 45 (rat) and 20 (human).1
Predicted hepatic clearance (CLhep) was calculated using the following equation: […]
Qh represents hepatic blood flow (mL/min/kg): 21 for human, 70 for rat, and 90 for mouse.

[2] = Intrinsic clearance in human liver microsomes; conditions: for CLint scaled at 0.75 h, 1 µM: pH 7.4, human liver microsomes; for CLhep, human: predicted hepatic clearance from human microsomes
CYP1A2 = target: T1, CYP1A2 (Homo sapiens, UniProt P05177); experiment: Cytochrome P450 inhibition using human liver microsomes, CYP1A2; conditions: read-out: CYP 450 IC50, 1A2
T1 construct: from tissue; host or cells: human liver microsomes
T1 sequence (P05177 1-516): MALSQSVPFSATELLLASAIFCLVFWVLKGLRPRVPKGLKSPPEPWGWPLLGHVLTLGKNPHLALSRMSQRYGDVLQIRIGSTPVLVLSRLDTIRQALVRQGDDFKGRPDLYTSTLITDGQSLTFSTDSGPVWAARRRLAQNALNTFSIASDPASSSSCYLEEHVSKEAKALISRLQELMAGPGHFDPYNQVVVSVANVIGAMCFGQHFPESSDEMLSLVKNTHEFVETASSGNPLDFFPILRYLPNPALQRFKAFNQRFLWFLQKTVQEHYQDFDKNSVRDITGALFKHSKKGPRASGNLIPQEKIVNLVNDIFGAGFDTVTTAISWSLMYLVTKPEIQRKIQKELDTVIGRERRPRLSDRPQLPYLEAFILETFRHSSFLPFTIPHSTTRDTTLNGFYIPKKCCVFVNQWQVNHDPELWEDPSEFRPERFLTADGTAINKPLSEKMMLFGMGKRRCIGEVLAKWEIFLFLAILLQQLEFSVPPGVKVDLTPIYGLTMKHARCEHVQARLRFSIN
Description: Cytochrome P450 inhibition using Liver Microsomes.
The ability of compounds to inhibit cytochrome P450s (CYPs) was tested using human liver microsomes and a cocktail of substrates specific for CYP1A2, 2C9, 2D6 and 3A4. Compounds were incubated at 37C in presence of human liver microsomes (0.1 mg/ml) at 30, 10, 3, 1, 0.3 and 0.1 µM. A cocktail of substrate was also added for each CYP tested: phenacetin (10 µM, CYP1A2), diclofenac (5 µM, CYP2C9), dextromethorphan (5 µM, CYP2D6) and midazolam (2 µM, CYP3A4). HLM were also incubated with the control inhibitor miconazole at 3, 1, 0.3, 0.1, 0.03 and 0.01 µM. […]
The concentrations of CYP-specific metabolites generated at the end of the reaction were quantified by mass spectrometry using standard curves for each metabolite: acetaminophen (CYP1A2), 4-hydroxydiclofenac (CYP2C9), dextrophan (CYP2D6) and 1-hydroxymidazolam (CYP3A4). A concentration response curve for each metabolite was generated and IC50s were calculated using Prism. The LC-MS/MS transitions for metabolite quantifications are as follows. […]
Prepared samples were injected (10 µL each) onto an AB Sciex Triple Quad 4500 mass spectrometer system with an Agilent 1260 Infinity II pump and autosampler. […] Quantitation of compounds was performed via AB Sciex Multiquant software using the raw analyte:IS peak area ratios. […]

CLint scaled at 0.75 h, 1 µM [1] [mL/min/kg]	rat CLhep [1] [mL/min/kg]	CLint scaled at 0.75 h, 1 µM [2] [mL/min/kg]	CLhep, human [2] [mL/min/kg]	IC50 (CYP1A2) [nM]	Structure (SMILES)
143	47.0	140	18.3	1200	Cc1csc(NC(=O)c2cc(O[C@@H]3CCOC3)c3sccc3n2)n1 [19aA]
116	43.7	241	19.3	1300	Cc1csc(NC(=O)c2cc(O[C@@H]3CCOC3)cc(F)c2F)n1 [27cA]
